Results from patent publication US20110045097A1, “SOLID PHARMACEUTICAL COMPOSITION COMPRISING IRBESARTAN” (KRKA, d.d. Novo mesto, priority 2006, published 2011).
Structures can show the parent of a compound that is named as a salt.

How the values were obtained:
[1] = as described in WO 05/025566; cited from earlier work
[2] = Solubility in dissolution media / solvents; format: physicochemical; details: 0.01 M HCl or simulated gastric juice (pH=1.2)
Method: WO 05/025566 is directed to irbesartan-containing oral pharmaceutical formulations having improved dissolution profiles, and especially dissolution of 80% or more 15 minutes after dosing and of 90% or more 30 minutes after dosing.

SMILES	Solubility in alcohol and CH2Cl2 [1]	Solubility in water [1]	Solubility as compared to the free irbesartan [2]
CCCCC1=NC2(CCCC2)C(=O)N1Cc1ccc(-c2ccccc2-c2nnn[nH]2)cc1 [irbesartan, 2-Butyl-3-[[2′-(1H-tetrazol-5-yl) [1,1′-biphenyl]-4-yl]methyl]-1,3-diazaspiro[4,4]-non-1-en-4-one]	slightly soluble	insoluble	–
CCCCC1=NC2(CCCC2)C(=O)N1Cc1ccc(-c2ccccc2-c2nnn[nH]2)cc1 [irbesartan-HCl, irbesartan hydrochloride]	–	–	higher
